Reference: US20070281992A1, “COMBINATION OF GYRASE B INHIBITORS AND PROTEIN SYNTHESIS INHIBITORS AND USES THEREOF” (priority 2006, published 2007)
Like-named read-outs stand apart in the source and are kept apart here.

Tests used:
[1] = tested on: Methicillin-Susceptible Staphylococcus aureus Isolates; assay: MIC assay (NCCLS broth dilution), MSSA clinical isolates; assay type: cell-based
Description: (§1) Antibiotics: novobiocin, tetracycline, minocycline, oxacillin, and vancomycin were all purchased from Sigma-Aldrich. Linezolid was obtained from Pfizer, Inc. Novobiocin/tetracycline and novobiocin/minocycline were tested in a 2.5:1 ratio to mimic the serum levels. (Vavra, J. J., 1967, Development of resistance to novobiocin, tetracycline, and novobiocin-tetracycline combinations in Staphylococcus aureus populations, J. Bacteriol 93(3):801). Compounds were tested across a concentration range consisting of 11 two-fold serial dilutions of test agent.
(§2) Stock solutions were prepared in sterile deionized water; novobiocin stock concentration was 1600 μg/mL and all other drugs stock solutions were prepared at 640 μg/mL. The stock solutions were allowed to sit at room temperature for one hour to auto-sterilize prior to use in the test. All compounds were in solution in water. The control agent was vancomycin hydrochloride, Sigma Chemical Lot # 015K0825.
(§3) The test organisms for the assay were 52 MSSA, 52 MRSA, 8 VISA, 7 VISE, and 3 LRSA isolates. Quality control strains included Staphylococcus aureus 0100 (ATCC 29213) and Enterococcus faecalis (ATCC 29212).
(§4) The MIC assay was performed according to published NCCLS guidelines. (National Committee for Clinical Laboratory Standards, Methods for Dilution Antimicrobial Susceptibility Tests for Bacteria that Grow Aerobically; Approved Standard-Sixth Edition, NCCLS Document M7-A6 [ISBN 1-56238-486-4], NCCLS, 940 West Valley Road, Suite 1400, Wayne, Pa. 19087-1898 USA, 2003). The test medium was Mueller Hinton II Broth for all organisms.

[2] = tested on: Methicillin-Resistant Staphylococcus aureus Isolates; assay: MIC assay (NCCLS broth dilution), MRSA clinical isolates; assay type: cell-based; conditions: for MIC: Staphylococcus aureus, read-out: Minimal Inhibitory Concentration
Description: as §1, §2, §3, §4

[3] = Staphylococcus aureus, 52 MSSA isolates, combinations at 2.5:1, given as NB/partner

MIC Range ([1]; 52 MSSA isolates, Mueller Hinton II Broth, combinations at 2.5:1, given as NB/partner): .08 to 10 µg/mL | MIC ([1]; Staphylococcus aureus, MSSA isolate 133, 03MAR06, read-out: Minimal Inhibitory Concentration): 0.15 µg/mL | MIC ([1]; Staphylococcus aureus, MSSA isolate 134, 03MAR06, read-out: Minimal Inhibitory Concentration): 0.08 µg/mL | MIC ([1]; Staphylococcus aureus, MSSA isolate 135, 03MAR06, read-out: Minimal Inhibitory Concentration): 0.31 µg/mL | MIC ([1]; Staphylococcus aureus, MSSA isolate 753, 22FEB06, read-out: Minimal Inhibitory Concentration): 0.31 µg/mL | MIC ([1]; Staphylococcus aureus, MSSA isolate 754, 22FEB06, read-out: Minimal Inhibitory Concentration): 0.31 µg/mL | MIC ([1]; Staphylococcus aureus, MSSA isolate 754, 24FEB06, read-out: Minimal Inhibitory Concentration): 0.31 µg/mL | MIC ([1]; Staphylococcus aureus, MSSA isolate 755, 22FEB06, read-out: Minimal Inhibitory Concentration): 0.31 µg/mL | MIC ([1]; Staphylococcus aureus, MSSA isolate 756, 03MAR06, read-out: Minimal Inhibitory Concentration): 0.15 µg/mL | MIC ([1]; Staphylococcus aureus, MSSA isolate 779, 22FEB06, read-out: Minimal Inhibitory Concentration): 0.31 µg/mL | MIC ([1]; Staphylococcus aureus, MSSA isolate 780, 03MAR06, read-out: Minimal Inhibitory Concentration): 0.31 µg/mL | MIC ([1]; Staphylococcus aureus, MSSA isolate 781, 03MAR06, read-out: Minimal Inhibitory Concentration): 0.15 µg/mL | MIC ([1]; Staphylococcus aureus, MSSA isolate 782, 22FEB06, read-out: Minimal Inhibitory Concentration): 0.15 µg/mL | MIC ([1]; Staphylococcus aureus, MSSA isolate 783, 22FEB06, read-out: Minimal Inhibitory Concentration): 0.31 µg/mL | MIC ([1]; Staphylococcus aureus, MSSA isolate 784, 22FEB06, read-out: Minimal Inhibitory Concentration): 0.31 µg/mL | MIC ([1]; Staphylococcus aureus, MSSA isolate 785, 22FEB06, read-out: Minimal Inhibitory Concentration): 0.15 µg/mL | MIC ([1]; Staphylococcus aureus, MSSA isolate 786, 22FEB06, read-out: Minimal Inhibitory Concentration): 0.15 µg/mL | MIC ([1]; Staphylococcus aureus, MSSA isolate 787, 22FEB06, read-out: Minimal Inhibitory Concentration): 0.15 µg/mL | MIC ([1]; Staphylococcus aureus, MSSA isolate 788, 22FEB06, read-out: Minimal Inhibitory Concentration): 0.15 µg/mL | MIC ([1]; Staphylococcus aureus, MSSA isolate 789, 24FEB06, read-out: Minimal Inhibitory Concentration): 0.31 µg/mL | MIC ([1]; Staphylococcus aureus, MSSA isolate 790, 24FEB06, read-out: Minimal Inhibitory Concentration): 0.31 µg/mL | MIC ([1]; Staphylococcus aureus, MSSA isolate 791, 24FEB06, read-out: Minimal Inhibitory Concentration): 0.15 µg/mL | MIC ([1]; Staphylococcus aureus, MSSA isolate 792, 03MAR06, read-out: Minimal Inhibitory Concentration): 0.15 µg/mL | MIC ([1]; Staphylococcus aureus, MSSA isolate 793, 24FEB06, read-out: Minimal Inhibitory Concentration): 0.31 µg/mL | MIC ([1]; Staphylococcus aureus, MSSA isolate 794, 24FEB06, read-out: Minimal Inhibitory Concentration): 0.31 µg/mL | MIC ([1]; Staphylococcus aureus, MSSA isolate 994, 22FEB06, read-out: Minimal Inhibitory Concentration): 0.15 µg/mL | MIC ([1]; Staphylococcus aureus, MSSA isolate 995, 03MAR06, read-out: Minimal Inhibitory Concentration): 0.31 µg/mL | MIC ([1]; Staphylococcus aureus, MSSA isolate 996, 22FEB06, read-out: Minimal Inhibitory Concentration): 0.31 µg/mL | MIC ([1]; Staphylococcus aureus, MSSA isolate 997, 22FEB06, read-out: Minimal Inhibitory Concentration): 0.31 µg/mL | MIC ([1]; Staphylococcus aureus, MSSA isolate 998, 03MAR06, read-out: Minimal Inhibitory Concentration): 0.31 µg/mL | MIC ([1]; Staphylococcus aureus, MSSA isolate 999, 22FEB06, read-out: Minimal Inhibitory Concentration): 0.15 µg/mL | MIC ([1]; Staphylococcus aureus, MSSA isolate 1000, 24FEB06, read-out: Minimal Inhibitory Concentration): 0.15 µg/mL | MIC ([1]; Staphylococcus aureus, MSSA isolate 1001, 24FEB06, read-out: Minimal Inhibitory Concentration): 0.31 µg/mL | MIC ([1]; Staphylococcus aureus, MSSA isolate 1002, 24FEB06, read-out: Minimal Inhibitory Concentration): 0.15 µg/mL | MIC ([1]; Staphylococcus aureus, MSSA isolate 1003, 03MAR06, read-out: Minimal Inhibitory Concentration): 0.08 µg/mL | MIC ([1]; Staphylococcus aureus, MSSA isolate 1005, 24FEB06, read-out: Minimal Inhibitory Concentration): 0.08 µg/mL | MIC ([1]; Staphylococcus aureus, MSSA isolate 1006, 24FEB06, read-out: Minimal Inhibitory Concentration): 0.31 µg/mL | MIC ([1]; Staphylococcus aureus, MSSA isolate 1007, 24FEB06, read-out: Minimal Inhibitory Concentration): 0.31 µg/mL | MIC ([1]; Staphylococcus aureus, MSSA isolate 1008, 24FEB06, read-out: Minimal Inhibitory Concentration): 0.625 µg/mL | MIC ([1]; Staphylococcus aureus, MSSA isolate 1009, 24FEB06, read-out: Minimal Inhibitory Concentration): 0.15 µg/mL | MIC ([1]; Staphylococcus aureus, MSSA isolate 1131, 24FEB06, read-out: Minimal Inhibitory Concentration): 0.15 µg/mL | MIC ([1]; Staphylococcus aureus, MSSA isolate 1132, 03MAR06, read-out: Minimal Inhibitory Concentration): 0.15 µg/mL | MIC ([1]; Staphylococcus aureus, MSSA isolate 1133, 24FEB06, read-out: Minimal Inhibitory Concentration): 0.15 µg/mL | MIC ([1]; Staphylococcus aureus, MSSA isolate 1134, 24FEB06, read-out: Minimal Inhibitory Concentration): 0.31 µg/mL | MIC ([1]; Staphylococcus aureus, MSSA isolate 1654, 03MAR06, read-out: Minimal Inhibitory Concentration): 0.31 µg/mL | MIC ([1]; Staphylococcus aureus, MSSA isolate 1656, 03MAR06, read-out: Minimal Inhibitory Concentration): 0.15 µg/mL | MIC ([1]; Staphylococcus aureus, MSSA isolate 1662, 03MAR06, read-out: Minimal Inhibitory Concentration): 0.15 µg/mL | MIC ([1]; Staphylococcus aureus, MSSA isolate 1663, 03MAR06, read-out: Minimal Inhibitory Concentration): 0.15 µg/mL | MIC ([1]; Staphylococcus aureus, MSSA isolate 1666, 03MAR06, read-out: Minimal Inhibitory Concentration): 0.31 µg/mL | MIC ([1]; Staphylococcus aureus, MSSA isolate 1667, 03MAR06, read-out: Minimal Inhibitory Concentration): 0.15 µg/mL | MIC ([1]; Staphylococcus aureus, MSSA isolate 1668, 03MAR06, read-out: Minimal Inhibitory Concentration): 0.15 µg/mL | MIC ([1]; Staphylococcus aureus, MSSA isolate 1671, 03MAR06, read-out: Minimal Inhibitory Concentration): 0.15 µg/mL | MIC ([1]; Staphylococcus aureus, MSSA isolate 1728, 03MAR06, read-out: Minimal Inhibitory Concentration): 10 µg/mL | MIC ([1]; Staphylococcus aureus, MSSA isolate 1728, retest 09MAR06, read-out: Minimal Inhibitory Concentration): 10 µg/mL | MIC ([1]; Staphylococcus aureus, MSSA isolate #1728 (novobiocin-resistant), read-out: MIC): 10 µg/mL | MIC50 [1, 3]: 0.15 µg/mL | MIC90 [1, 3]: 0.312 µg/mL | MIC Range ([1]; the other 51 MSSA isolates (without #1728)): 0.08 to 0.62 µg/mL | MIC Range ([2]; 52 MRSA isolates, combinations at 2.5:1, given as NB/partner): ≦.04-.62 μg/ml | MIC ([2]; MRSA isolate 757, 24FEB06): 0.31 µg/mL | MIC ([2]; MRSA isolate 758, 03MAR06): 0.08 µg/mL
Structure (SMILES): CO[C@@H]1[C@@H](OC(N)=O)[C@@H](O)[C@H](Oc2ccc3c(O)c(NC(=O)c4ccc(O)c(CC=C(C)C)c4)c(=O)oc3c2C)OC1(C)C [NB, novobiocin]
